# Results as given in patent US20240092727A1, “CRYSTALLINE 4-((L-VALYL)OXY)BUTANOIC ACID” (XWPHARMA LTD., priority 2022, published 2024).
# Experiments:
# [1] = Sealed storage stability study (ICH Q1A (R2)), four storage conditions, 3- and 6-month timepoints; assay type: physicochemical; parameters: key to Crystalline Form: C = Conforms; N/A = Not Applicable; conditions: for Crystalline Form: XRPD; for Crystalline Form / Assay / Total Impurities / Water Content: sealed storage
# Excerpt: (§1) “Sealed storage stability” refers to the stability of a compound that is enclosed within two sealed polyethylene bags with a desiccant material placed between the two polyethylene bags and the two sealed polyethylene bags are enclosed within a sealed one-layer aluminum bag.
# Crystalline 4-((L-valyl)oxy)butanoic acid was packaged in double low-density polyethylene (LDPE) zipper bags and sealed. The packaged samples were then placed within an aluminum foil outer bag (polyethylene, polyethylene terephthalate three-layer composite) and sealed. The fully packaged samples were placed in stability chambers for the duration of the sealed storage stability study.
# Sealed storage stability studies were carried out under four sets of conditions external to the packaged crystalline 4-((L-valyl)oxy)butanoic acid: • 1. Accelerated conditions ([…], 75±5% RH). • 2. Intermediate storage condition ([…], 65±5% RH). • 3. Long-term storage condition (25±2° C., […]). • 4. 2-8° C. conditions.
# The sealed storage stability of crystalline 4-((L-valyl)oxy)butanoic acid (1) was tested according to the International Council for Harmonization of Technical Requirements for Pharmaceuticals for Human Use (ICH) document Q1A (R2) “Stability Testing of New Drug Substances and Products.” Accordingly, samples were pulled at 3- and 6-month timepoints. The assay percentage of the crystalline 4-((L-valyl)oxy)butanoic acid was determined by electrochemical titration using acetic acid as the solvent and perchloric acid as the titrant. Water content was tested by Karl Fischer titration (Karl Fisher Titrator: Mettler V30). Impurities were measured by HPLC (HPLC Instrument: Waters Arc HPLC system with CAD; Column: Waters Atlantis T3, 4.6×150 mm, 3 μm). The samples were analyzed by XRPD analysis (XRPD Instrument: Bruker D8 advance). The sealed storage stability results of crystalline 4-((L-valyl)oxy)butanoic acid stored under the four storage conditions are summarized in Table 2.
# [2] = Sealed storage stability, other studies, 36 months; assay type: physicochemical; conditions: 25±2° C., for 36 months; stable = absorbs less than 2 wt % water and impurity content of less than 2 wt %
# Excerpt: as §1
# Stability is defined as the sample of crystalline 4-((L-valyl)oxy)butanoic acid absorbs less than 2 wt % water and an impurity content of less than 2 wt % for a period of time under the indicated sealed storage conditions.
# [3] = up to 6 months under all sealed storage conditions
smiles,measurement,setting,value
CC(C)[C@H](N)C(=O)OCCCC(=O)O [4-((L-valyl)oxy)butanoic acid],Crystalline Form,"[1]; 2-8° C., 6 M",C
same,Crystalline Form,"[1]; 2-8° C., D 0",C
same,Crystalline Form,"[1]; 25 ± 2° C., 60 ± 5% RH, 6 M",C
same,Crystalline Form,"[1]; 25 ± 2° C., 60 ± 5% RH, D 0",C
same,Crystalline Form,"[1]; 30 ± 2° C., 65 ± 5% RH, 3 M",C
same,Crystalline Form,"[1]; 30 ± 2° C., 65 ± 5% RH, 6 M",C
same,Crystalline Form,"[1]; 30 ± 2° C., 65 ± 5% RH, D 0",C
same,Crystalline Form,"[1]; 40 ± 2° C., 75 ± 5% RH, 6 M",C
same,Crystalline Form,"[1]; 40 ± 2° C., 75 ± 5% RH, D 0",C
same,Assay,"[1]; 2-8° C., 3 M",98.8 wt %
same,Total Impurities,"[1]; 2-8° C., 3 M",0.4 wt %
same,Water Content,"[1]; 2-8° C., 3 M",0.2 wt %
same,Assay,"[1]; 2-8° C., 6 M",99.8 wt %
same,Total Impurities,"[1]; 2-8° C., 6 M",0.2 wt %
same,Water Content,"[1]; 2-8° C., 6 M",0.3 wt %
same,Assay,"[1]; 2-8° C., D 0",99.4 wt %
same,Total Impurities,"[1]; 2-8° C., D 0",0.3 wt %
same,Water Content,"[1]; 2-8° C., D 0",0.1 wt %
same,Assay,"[1]; 25 ± 2° C., 60 ± 5% RH, 3 M",98.8 wt %
same,Total Impurities,"[1]; 25 ± 2° C., 60 ± 5% RH, 3 M",0.5 wt %
same,Water Content,"[1]; 25 ± 2° C., 60 ± 5% RH, 3 M",0.2 wt %
same,Assay,"[1]; 25 ± 2° C., 60 ± 5% RH, 6 M",99.3 wt %
same,Total Impurities,"[1]; 25 ± 2° C., 60 ± 5% RH, 6 M",0.4 wt %
same,Water Content,"[1]; 25 ± 2° C., 60 ± 5% RH, 6 M",0.3 wt %
same,Assay,"[1]; 25 ± 2° C., 60 ± 5% RH, D 0",99.4 wt %
same,Total Impurities,"[1]; 25 ± 2° C., 60 ± 5% RH, D 0",0.3 wt %
same,Water Content,"[1]; 25 ± 2° C., 60 ± 5% RH, D 0",0.1 wt %
same,Assay,"[1]; 30 ± 2° C., 65 ± 5% RH, 3 M",99.9 wt %
same,Total Impurities,"[1]; 30 ± 2° C., 65 ± 5% RH, 3 M",0.4 wt %
same,Water Content,"[1]; 30 ± 2° C., 65 ± 5% RH, 3 M",0.4 wt %
same,Assay,"[1]; 30 ± 2° C., 65 ± 5% RH, 6 M",99.3 wt %
same,Total Impurities,"[1]; 30 ± 2° C., 65 ± 5% RH, 6 M",0.4 wt %
same,Water Content,"[1]; 30 ± 2° C., 65 ± 5% RH, 6 M",0.1 wt %
same,Assay,"[1]; 30 ± 2° C., 65 ± 5% RH, D 0",99.4 wt %
same,Total Impurities,"[1]; 30 ± 2° C., 65 ± 5% RH, D 0",0.3 wt %
same,Water Content,"[1]; 30 ± 2° C., 65 ± 5% RH, D 0",0.1 wt %
same,Assay,"[1]; 40 ± 2° C., 75 ± 5% RH, 3 M",98.8 wt %
same,Total Impurities,"[1]; 40 ± 2° C., 75 ± 5% RH, 3 M",0.6 wt %
same,Water Content,"[1]; 40 ± 2° C., 75 ± 5% RH, 3 M",0.1 wt %
same,Assay,"[1]; 40 ± 2° C., 75 ± 5% RH, 6 M",99.3 wt %
same,Total Impurities,"[1]; 40 ± 2° C., 75 ± 5% RH, 6 M",0.7 wt %
same,Water Content,"[1]; 40 ± 2° C., 75 ± 5% RH, 6 M",0.3 wt %
same,Assay,"[1]; 40 ± 2° C., 75 ± 5% RH, D 0",99.4 wt %
same,Total Impurities,"[1]; 40 ± 2° C., 75 ± 5% RH, D 0",0.3 wt %
same,Water Content,"[1]; 40 ± 2° C., 75 ± 5% RH, D 0",0.1 wt %
same,Chemical stability of the crystalline sample,[1]; [3],chemically stable
same,Sealed storage stability,[1]; [3],stable
same,Sealed storage stability,[2],sealed storage stable
